The test system of this series is ScGT1 cells. As to conditions: for cells remaining viable after treatment: mouse.

Consider fulvic acids [FA], for which the “cell viability / cytotoxicity” value is “remain viable” and the “cells remaining viable after treatment” value is listed as 94%.

Take humic acids [HA]: the “cell viability / cytotoxicity” value is “remain viable” and the “cells remaining viable after treatment” value is given as 96%.

Source of the values: patent publication US20120149654A1 (priority 2009, published 2012).
